According to US20140045189A1 (priority 2009, published 2014):
Where two headings read alike, the source gives them in different places.

Tests used:
Listeria monocytogenes = conditions: 30 min, TSA-Y, control 2.78×10^9 CFU/ml
Protocol: (§1) Listeria monocytogenes EGDe (1/2a, internal number 2964) is used as a model organism for Gram-positive bacteria and as a DNA quantification standard for real-time PCR. Salmonella enterica serovar Typhimurium (NCTC 12023) is used as a model organism for Gram-negative bacteria and as a DNA quantification standard for real-time PCR. The bacteria are maintained at −80° C. using MicroBank™ technology (Pro-Lab Diagnostics, Richmont Hill, Canada) and are part of the collection of bacterial strains at the Institute of Milk Hygiene, Milk Technology and Food Science, University of Veterinary Medicine, Vienna, Austria. All bacterial strains are grown overnight in tryptone soya broth with 0.6% (w/v) yeast extract (TSB-Y; Oxoid, Hampshire, United Kingdom) at the respective optimal growth temperatures (37° C., L. monocytogenes and 42° C., S. Typhimurium).
(§2) The influence of different MgCl2 concentrations on the viability of Listeria monocytogenes and Salmonella Typhimurium is investigated. The target organisms are incubated for 30 min with 3 different concentrations of MgCl2 (1 M, 2 M and 3 M) and at 3 different temperatures (35° C., 38° C. and 45° C.) and the CFUs on TSA-Y agar plates after the treatment are compared with the control sample.

Salmonella Typhimurium = conditions: 30 min, TSA-Y, control […]10^9 CFU/ml
Protocol: as §1, §2

## [Cl-].[Cl-].[Mg+2] [MgCl2, magnesium chloride]
Listeria monocytogenes; 1 M MgCl2, 35° C.
  CFU/ml of L. monocytogenes after treatment: 3.86×10^9 CFU/ml
Listeria monocytogenes; 1 M MgCl2, 38° C.
  CFU/ml of L. monocytogenes after treatment: 4.06×10^9 CFU/ml
Listeria monocytogenes; 1 M MgCl2, 45° C.
  CFU/ml of L. monocytogenes after treatment: 4.39×10^9 CFU/ml
Listeria monocytogenes; 2 M MgCl2, 35° C.
  CFU/ml of L. monocytogenes after treatment: 3.10×10^9 CFU/ml
Listeria monocytogenes; 2 M MgCl2, 38° C.
  CFU/ml of L. monocytogenes after treatment: 3.64×10^9 CFU/ml
Listeria monocytogenes; 2 M MgCl2, 45° C.
  CFU/ml of L. monocytogenes after treatment: 1.68×10^9 CFU/ml
Listeria monocytogenes; 3 M MgCl2, 35° C.
  CFU/ml of L. monocytogenes after treatment: 1.76×10^9 CFU/ml
Listeria monocytogenes; 3 M MgCl2, 38° C.
  CFU/ml of L. monocytogenes after treatment: 8.5×10^8 CFU/ml
Listeria monocytogenes; 3 M MgCl2, 45° C.
  CFU/ml of L. monocytogenes after treatment: 1.5×10^8 CFU/ml
Salmonella Typhimurium; 1 M MgCl2, 35° C.
  CFU/ml of S. Typhimurium after treatment: 1.15×10^9 CFU/ml
Salmonella Typhimurium; 1 M MgCl2, 38° C.
  CFU/ml of S. Typhimurium after treatment: 8.33×10^8 CFU/ml
Salmonella Typhimurium; 1 M MgCl2, 45° C.
  CFU/ml of S. Typhimurium after treatment: 4.1×10^8 CFU/ml
Salmonella Typhimurium; 2 M MgCl2, 35° C.
  CFU/ml of S. Typhimurium after treatment: 2.3×10^8 CFU/ml
Salmonella Typhimurium; 2 M MgCl2, 38° C.
  CFU/ml of S. Typhimurium after treatment: 1.35×10^8 CFU/ml
Salmonella Typhimurium; 3 M MgCl2, 35° C.
  CFU/ml of S. Typhimurium after treatment: 5.75×10^7 CFU/ml
Salmonella Typhimurium; 3 M MgCl2, 38° C.
  CFU/ml of S. Typhimurium after treatment: 2.0×10^7 CFU/ml
